A short description of series [1]: Metabolic stability in mouse hepatic microsome. Format: in vitro ADME. Conditions: male, mouse, liver microsomes, pH 7.4; Table 9, thioether versus sulfoxide; read-out: Mouse Hepatic Microsome CLh, int. As to the method: The obtained compound was metabolically reacted at a concentration of 2 uM with mouse serum (male/female mixed, Valley Biomedical, USA) (adjusted to pH 7.4 with 33.5 mM HEPES buffer) for two hours. Deproteinization treatment with acetonitrile was provided over time, the amount of the remaining unchanged compound was analyzed using LC/MS, and the metabolic half-life (t1/2) was calculated. A microsome solution prepared at 0.5 mg protein/mL from mouse hepatic microsome and small intestinal microsome (male, XENOTECH, USA) using 100 mM phosphate buffer (pH 7.4) was metabolically reacted with the compound at a concentration of 1 uM for 30 minutes in the presence or absence of NADPH. Deproteinization treatment with acetonitrile was provided over time, the amount of the remaining unchanged compound was analyzed using LC/MS, and the hepatic-intrinsic clearance (CLh, int) and the small intestinal-intrinsic clearance (CLg, int) were calculated (Table 7). Such peptides were sufficiently slowly metabolized by hydrolysis with peptidases or the like in mouse sera and microsomes, contrary to peptides composed of natural amino acids having low lipophilicity.
Metabolic stability tests were carried out in the same manner as shown in 2-1.

Another series is described as follows: in vivo. Conditions: male, C57BL/6J, mouse, 20 mg/kg.
Series [2] is described as follows: Metabolic stability in human hepatic microsome. Format: in vitro ADME. As to conditions: microsomes.
The nature of series [3]: PAMPA (parallel artificial membrane permeability assay). The series is classed as in vitro ADME. Conditions: PAMPA. Put shortly:
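Artificial membrane was 10% (w/v) egg lecithin plus 0.5% (w/v) cholesterol in dodecane on a PVDF filter. A 10 mM DMSO stock was added at 0.5% (v/v) to donor buffer (50 mM MOPSO, pH 6.5, 5.0% glycocholic acid). After 18 h at 37 °C, LC/MS or LC/UV gave donor and acceptor levels for Pe.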
(The PAMPA barrier holds no transporters, so it reflects passive diffusion.)

A short description of series [4]: Mouse PK test of peptides (intravenous and oral administration). As to conditions: male, C57BL/6J, in vivo, 20 mg/kg.
The mark [5] stands for this setting: pH 7.4, human hepatic microsome, NADPH(+), read-out: CL NADPH(+).
Setting [6] is: membrane permeation rate (Pe), 50 mM MOPSO buffer pH 6.5 with 5.0% glycocholic acid, 37° C., 18 hours, read-out: iPAMPA Pe.

The source of these data is patent US9409952B2, “Peptide-compound cyclization method” (Chugai Seiyaku Kabushiki Kaisha, priority 2011, dated 2016).

Read-outs that look alike come from different tables or passages of the source. Starred links: 1 amine or outer side, 2 acyl side, 3 side chain; linkers in the order of their positions; H or OH if unused. Positions of bridges follow the written chain, without caps; N, C: chain ends. Non-standard residues stand in square brackets, D forms with d. Residues, ends and D or L forms follow the SMILES beside them. *: point of attachment. Cys(O)(CH2CO) = O=C([C@H](C[S+]([O-])CC(=O)[*:3])N[*:1])[*:2]; NMeF = CN[C@@H](Cc1ccccc1)C(=O)O; NMeI = CC[C@H](C)[C@H](NC)C(=O)O; NMeL = CN[C@@H](CC(C)C)C(=O)O; NMeV = CN[C@H](C(=O)O)C(C)C; NMeA = CN[C@@H](C)C(=O)O; Piperidide = C1CCN(*)CC1; NPrGly = CCCNCC(=O)O; Sar = CNCC(=O)O; tBu = CC(C)(C)*

For the compound `CC[C@H](C)[C@H]1C(=O)N[C@H](C(=O)N2CCCCC2)C[S+]([O-])CC(=O)N(C)[C@@H](Cc2ccccc2)C(=O)N(C)[C@@H](C)C(=O)N(C)[C@@H](Cc2ccccc2)C(=O)N(C)[C@@H](CC(C)C)C(=O)N[C@@H]([C@@H](C)O)C(=O)N(C)CC(=O)N(C)[C@@H](CC(C)C)C(=O)N[C@@H](COC(C)(C)C)C(=O)N1C` (stereo partly drawn) [Compound P-116, (5S,8S,11S,14S,17S,23S,26S,29S,32R)-5,11-dibenzyl-26-(tert-butoxymethyl)-29-((S)-sec-butyl)-17-((R)-1-hydroxyethyl)-14,23-diisobutyl-4,7,8,10,13,19,22,28-octamethyl-32-(piperidine-1-carbonyl)-1-thia-4,7,10,13,16,19,22,25,28,31-decaazacyclotritriacontane-3,6,9,12,15,18,21,24,27,30-decone 1-oxide] ([NMeF][NMeA][NMeF][NMeL]T[Sar][NMeL]S(tBu)[NMeI][Cys(O)(CH2CO)]-Piperidide; lactam N-10), the microsomal CLint at 1 uM in series [1] is 56.5 µL/min/mg.
Same read-out and setting: in the case of `CC[C@H](C)[C@H]1C(=O)N[C@H](C(=O)N2CCCCC2)C[S+]([O-])CC(=O)N(C)[C@@H](C)C(=O)N[C@@H](Cc2ccccc2)C(=O)N(C)[C@@H](CC(C)C)C(=O)N[C@@H]([C@@H](C)O)C(=O)N(C)CC(=O)N(C)[C@@H](CC(C)C)C(=O)N[C@@H](COC(C)(C)C)C(=O)N1C` (stereo partly drawn) [Compound P-117, (5S,8S,11S,14S,20S,23S,26S,29R)-8-benzyl-23-(tert-butoxymethyl)-26-((S)-sec-butyl)-14-((R)-1-hydroxyethyl)-11,20-diisobutyl-4,5,10,16,19,25-hexamethyl-29-(piperidine-1-carbonyl)-1-thia-4,7,10,13,16,19,22,25,28-nonaazacyclotriacontane-3,6,9,12,15,18,21,24,27-nonone 1-oxide] ([NMeA]F[NMeL]T[Sar][NMeL]S(tBu)[NMeI][Cys(O)(CH2CO)]-Piperidide; lactam N-9) it was 36 µL/min/mg.
Take `CC[C@H](C)[C@H]1C(=O)N[C@@H](COC(C)(C)C)C(=O)N(C)[C@@H](Cc2ccccc2)C(=O)N(C)[C@@H](C(C)C)C(=O)N[C@H](C(=O)N2CCCCC2)CC(=O)N(C)[C@@H](C)C(=O)N(C)[C@@H](Cc2ccccc2)C(=O)N[C@@H](CC(C)C)C(=O)N(C)[C@@H](CC(C)C)C(=O)N[C@@H]([C@@H](C)O)C(=O)N(C)CC(=O)N1C` [DP-47] ([NMeA][NMeF]L[NMeL]T[Sar][NMeI]S(tBu)[NMeF][NMeV]D-Piperidide; lactam N-11): in “in vivo” (iv), the AUC (as a rule, concentration integrated over time) stood at 202000 ng·h/mL; the C0 amounted to 107000 ng/mL; the Vd turned out to be 0.381 L/kg; the clearance was 1.66 mL/min/kg. In the series “in vivo” (iv), the half-life (commonly the time in which the quantity being followed falls by half) is 2.68 h. For the same compound, in the series “in vivo” (po), the AUC was 38000 ng·h/mL; the apparent clearance (CL/F) (in general, clearance divided by bioavailability, as obtained after extravascular dosing) was 8.86 mL/min/kg; the Cmax (as a rule, the peak of the concentration-time curve) stood at 4490 ng/mL; the Tmax (usually the time at which the peak concentration occurs) turned out to be 2.67 h. Besides, in “in vivo” (po), the bioavailability (as a rule, dose-corrected exposure relative to a reference, in per cent) amounted to 18.8% and the half-life is 3.88 h. The microsomal CLint at 1 uM in series [2] (human, pH 7.4, CL NADPH(+)) amounted to 37 µL/min/mg. Also, in series [3] (pH 6.5), the Papp at 18 hours, 50 µM turned out to be 50 ×10⁻⁶ cm/s.
In “in vivo” (iv), `CC(C)C[C@H]1C(=O)N2CCC[C@H]2C(=O)N(C)[C@@H](CC(C)C)C(=O)N[C@@H](C)C(=O)N(C)[C@@H](C(C)C)C(=O)N[C@H](C(=O)N2CCCCC2)CC(=O)N(C)[C@@H](C)C(=O)N[C@@H]([C@@H](C)O)C(=O)N(C)CC(=O)N(C)[C@@H](Cc2ccccc2)C(=O)N(C)[C@@H](Cc2ccccc2)C(=O)N1C` [DP-67] ([NMeA]T[Sar][NMeF][NMeF][NMeL]P[NMeL]A[NMeV]D-Piperidide; lactam N-11) came in with an area under the curve (AUC) of 70700 ng·h/mL, a C0 of 102000 ng/mL, a Vd of 0.431 L/kg and a clearance of 4.74 mL/min/kg. The compound also gave a half-life in the series “in vivo” (iv) of 3.25 h. Besides, in “in vivo” (po), the AUC stood at 10900 ng·h/mL, the CL/F amounted to 37.9 mL/min/kg, the concentration peaked (Cmax) at 2310 ng/mL and the Tmax was determined as 3.5 h. In the series “in vivo” (po), this compound gave a bioavailability of 15.5% and a half-life of 4.36 h. This compound registered a microsomal CLint at 1 uM in series [2] (human, pH 7.4, CL NADPH(+)) of 15 µL/min/mg. For the same compound, the Papp at 18 hours, 50 µM in series [3] (pH 6.5) is 23 ×10⁻⁶ cm/s.
`CC[C@H](C)[C@H]1C(=O)N[C@H](C(=O)N2CCCCC2)CC(=O)N[C@H](C(C)C)C(=O)N(C)[C@@H](Cc2ccccc2)C(=O)N(C)[C@@H](CC(C)C)C(=O)N[C@@H]([C@@H](C)O)C(=O)N(C)CC(=O)N(C)[C@@H](CC(C)C)C(=O)N[C@@H](COC(C)(C)C)C(=O)N1C` [DP-265] ([dV][NMeF][NMeL]T[Sar][NMeL]S(tBu)[NMeI]D-Piperidide; lactam N-9): the microsomal CLint at 1 uM in series [2] (setting [5]) is 58 µL/min/mg. The Papp at 18 hours, 50 µM in series [3] (setting [6]) came to 42 ×10⁻⁶ cm/s. Besides, in series [4] (iv), the AUC was found to be 35300 ng·h/mL, the C0 came out at 58300 ng/mL, the Vd turned out to be 0.713 L/kg and the clearance was found to be 9.48 mL/min/kg. In addition, the half-life in series [4] (iv) was 1.82 h. In series [4] (po), the exposure (AUC) was determined as 5120 ng·h/mL, the CL/F was 65.1 mL/min/kg, the highest concentration (Cmax) was determined as 2850 ng/mL and the time to peak (Tmax) is 0.67 h. In series [4] (po), this compound had a bioavailability of 14.5% and a half-life of 1.96 h.
As to `CCCN1CC(=O)N(C)[C@@H](CC(C)C)C(=O)N[C@@H]([C@@H](C)O)C(=O)N(C)[C@@H](C)C(=O)N(C)[C@@H](CC(C)C)C(=O)N(C)[C@@H]([C@@H](C)CC)C(=O)N[C@@H](COC(C)(C)C)C(=O)N[C@H](C(=O)N2CCCCC2)CC(=O)N(C)[C@@H](C)C(=O)N(C)[C@@H](Cc2ccccc2)C1=O` [DP-540] ([NMeA][NMeF][NPrGly][NMeL]T[NMeA][NMeL][NMeI]S(tBu)D-Piperidide; lactam N-10), in series [2] (setting [5]), the microsomal CLint at 1 uM was 67 µL/min/mg. Further, the Papp at 18 hours, 50 µM in series [3] (setting [6]) came to 36 ×10⁻⁶ cm/s. For the same compound, in series [4] (iv), the area under the curve (AUC) was found to be 41400 ng·h/mL, the C0 was found to be 48100 ng/mL, the Vd was 0.803 L/kg and the clearance turned out to be 8.16 mL/min/kg. This compound gave a half-life in series [4] (iv) of 1.63 h. In addition, in series [4] (po), the AUC amounted to 9800 ng·h/mL, the apparent clearance (CL/F) was found to be 35.8 mL/min/kg, the Cmax is 1870 ng/mL and the Tmax stood at 1.83 h. In series [4] (po), this compound had a bioavailability of 23.7% and a half-life of 3.11 h.
With `CCCN1CC(=O)N(C)[C@@H](CC(C)C)C(=O)N[C@@H](COC(C)(C)C)C(=O)N(C)[C@@H](CC(C)C)C(=O)N[C@H](C(=O)N2CCCCC2)CC(=O)N[C@H](C)C(=O)N(C)[C@@H](C)C(=O)N(C)[C@@H](Cc2ccccc2)C(=O)N(C)[C@@H](CC(C)C)C(=O)N[C@@H]([C@@H](C)O)C1=O` [DP-547] ([dA][NMeA][NMeF][NMeL]T[NPrGly][NMeL]S(tBu)[NMeL]D-Piperidide; lactam N-10), the microsomal CLint at 1 uM in series [2] (setting [5]) was 33 µL/min/mg. Besides, in series [3] (setting [6]), the Papp at 18 hours, 50 µM came to 34 ×10⁻⁶ cm/s. Moreover, in series [4] (iv), the AUC was determined as 37200 ng·h/mL, the C0 came to 44500 ng/mL, the Vd came to 0.541 L/kg and the clearance is 8.98 mL/min/kg. Besides, in series [4] (iv), the half-life was 1.1 h. Also, in series [4] (po), the area under the curve (AUC) was 4510 ng·h/mL, the CL/F amounted to 74.6 mL/min/kg, the peak concentration (Cmax) was found to be 1470 ng/mL and the time to peak (Tmax) is 1 h. Also, in series [4] (po), the bioavailability worked out at 12.1% and the half-life is 1.84 h.
As to `CC[C@H](C)[C@H](NC(=O)[C@@H]1CCCN1C(=O)[C@@H]1CC(=O)N[C@@H](C)C(=O)N[C@@H](CC(C)C)C(=O)N(C)[C@@H]([C@@H](C)CC)C(=O)N[C@@H](C(C)C)C(=O)N(C)[C@@H](Cc2ccccc2)C(=O)N[C@@H](CC(C)C)C(=O)N(C)[C@@H](Cc2ccccc2)C(=O)N1)C(=O)N1CCCCC1` [DP-965] (AL[NMeI]V[NMeF]L[NMeF]DPI-Piperidide; lactam N-8), the microsomal CLint at 1 uM in series [2] (setting [5]) was 56 µL/min/mg. In addition, the Papp at 18 hours, 50 µM in series [3] (setting [6]) stood at 16 ×10⁻⁶ cm/s. In addition, in series [4] (iv), the exposure (AUC) amounted to 193000 ng·h/mL, the C0 worked out at 171000 ng/mL, the Vd amounted to 0.403 L/kg and the clearance turned out to be 1.73 mL/min/kg. In series [4] (iv), the half-life is 2.99 h. Moreover, in series [4] (po), the exposure (AUC) stood at 13700 ng·h/mL, the apparent clearance (CL/F) stood at 28.9 mL/min/kg, the peak concentration (Cmax) came to 1920 ng/mL and the Tmax is 2.67 h. In series [4] (po), the bioavailability worked out at 7.12% and the half-life was 2.99 h.
